≈ marks a conversion by molar mass, not a printed value. Where “and” joins values, the source holds several entries; their conditions need not be identical. Identical values can stand only once. Calls of active or inactive are those of the source. The calls are words filed in the database; no cut-off is given here.
Tests used:
[1] = test system: Mycobacterium tuberculosis; test: Antibacterial activity against Mycobacterium tuberculosis H37Rv assessed as inhibition of bacterial growth by microplate alamar blue assay; format: functional
[2] = test system: Mycobacterium tuberculosis; test: Antibacterial activity against Mycobacterium tuberculosis H37Rv assessed as inhibition of bacterial growth; format: functional, organism-based
[3] = test system: Mycobacterium tuberculosis; test: Inhibition of Mycobacterium tuberculosis H37Rv mc2 6206 HadB/C expressed in Escherichia coli using trans-2-hexadecenoyl-coenzyme A as substrate by spectrophotometric analysis
[4] = Inhibition of Mycobacterium tuberculosis H37Rv mc2 6206 HadA/B expressed in Escherichia coli using trans-2-hexadecenoyl-coenzyme A as substrate by spectrophotometric analysis
[5] = test system: Staphylococcus aureus; test: Antibacterial activity against methicillin-resistant Staphylococcus aureus 693E assessed as inhibition of bacterial growth by broth microdilution assay; format: functional
[6] = test system: Mycobacterium tuberculosis; test: Antibacterial activity against Mycobacterium tuberculosis H37Rv assessed as inhibition of bacterial growth by broth microdilution assay; format: functional
[7] = target: T1, Thymidylate kinase (Mycobacterium tuberculosis, UniProt P9WKE1); test: Inhibition of Mycobacterium tuberculosis TMPK
T1 sequence (P9WKE1 whole entry): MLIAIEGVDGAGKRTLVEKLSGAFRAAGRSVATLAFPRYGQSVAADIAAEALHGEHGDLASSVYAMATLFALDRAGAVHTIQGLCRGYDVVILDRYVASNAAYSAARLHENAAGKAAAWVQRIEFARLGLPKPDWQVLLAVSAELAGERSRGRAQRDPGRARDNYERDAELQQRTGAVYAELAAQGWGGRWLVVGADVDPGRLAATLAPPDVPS

[8] = target: DNA gyrase (Escherichia coli, UniProt P0AES4+P0AES6); test: Inhibition of Escherichia coli DNA gyrase; format: protein-complex assay
[9] = Microsomal stability in human liver microsomes assessed as half life at 0.1 uM incubated for 60 mins in presence of NADPH by LC-MS/MS analysis; format: ADME, Microsome
[10] = Inhibition of Mycobacterium tuberculosis salicylate synthase using chorismic acid as substrate in presence of MgCl2 by fluorimetric assay
[11] = test system: Mycobacterium tuberculosis; test: Antibacterial activity against Mycobacterium tuberculosis H37Rv infected in Macrophage assessed as reduction in bacterial growth; format: functional
[12] = Cytotoxicity against African green monkey Vero cells assessed as inhibition of cell growth; format: toxicity, cell-based; details: African green monkey (Chlorocebus sabaeus)
[13] = Selectivity index, ratio of IC50 for cytotoxicity against African green monkey Vero cells to MIC for antibacterial activity against Mycobacterium tuberculosis H37Rv; format: toxicity, cell-based; details: read-out: Selectivity Index
[14] = test system: Mycobacterium tuberculosis; test: Antibacterial activity against drug-sensitive Mycobacterium tuberculosis assessed as inhibition of bacterial growth; format: functional
[15] = target: T2, Enoyl-[acyl-carrier-protein] reductase [NADH] (Mycobacterium tuberculosis, UniProt P9WGR1); test: Inhibition of Mycobacterium tuberculosis InhA
T2 sequence (P9WGR1 whole entry): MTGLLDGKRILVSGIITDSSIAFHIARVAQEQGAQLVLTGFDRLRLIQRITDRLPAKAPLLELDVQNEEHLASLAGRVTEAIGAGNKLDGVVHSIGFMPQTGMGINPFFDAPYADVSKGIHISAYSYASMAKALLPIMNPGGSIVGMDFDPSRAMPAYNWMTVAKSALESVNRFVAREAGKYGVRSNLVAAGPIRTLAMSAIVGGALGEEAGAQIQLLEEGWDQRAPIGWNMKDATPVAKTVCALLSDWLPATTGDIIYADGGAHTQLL

[16] = test system: Mycobacterium tuberculosis; test: Antibacterial activity against Mycobacterium tuberculosis H37Ra assessed as inhibition of bacterial growth; format: functional
[17] = test system: Mycobacterium tuberculosis; test: Antibacterial activity against Mycobacterium tuberculosis H37Rv assessed as inhibition of bacterial growth by resazurin dye based colorimetric analysis; format: functional, organism-based
[18] = target: T3, Pantothenate synthetase (Mycobacterium tuberculosis, UniProt P9WIL5); test: Inhibition of Mycobacterium tuberculosis H37Ra pantothenate synthetase
T3 sequence (P9WIL5 whole entry): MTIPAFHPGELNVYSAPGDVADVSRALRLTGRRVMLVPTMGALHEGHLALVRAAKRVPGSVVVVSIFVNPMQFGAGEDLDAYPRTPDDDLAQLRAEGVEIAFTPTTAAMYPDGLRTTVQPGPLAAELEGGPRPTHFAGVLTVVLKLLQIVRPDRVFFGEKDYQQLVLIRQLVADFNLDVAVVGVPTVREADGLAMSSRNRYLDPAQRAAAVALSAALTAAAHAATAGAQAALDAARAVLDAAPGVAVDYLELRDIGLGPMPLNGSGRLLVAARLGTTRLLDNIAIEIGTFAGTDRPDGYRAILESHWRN

[19] = test system: Mycobacterium tuberculosis; test: Antibacterial activity against Mycobacterium tuberculosis assessed as inhibition of bacterial growth; format: functional, organism-based
[20] = test system: Mycobacterium tuberculosis; test: Antibacterial activity against Mycobacterium tuberculosis assessed as inhibition of bacterial growth by microplate alamar blue assay; format: functional
[21] = Cytotoxicity against human WI-38 cells assessed as inhibition of cell growth by MTT assay; format: toxicity, cell-based
[22] = test system: Mycobacterium tuberculosis; test: Antibacterial activity against wild-type Mycobacterium tuberculosis H37Rv assessed as inhibition of bacterial growth; format: functional
[23] = test system: Mycobacterium tuberculosis; test: Antibacterial activity against Mycobacterium tuberculosis H37Rv assessed as bacterial growth inhibition at less than 6.25 ug/ml relative to control; format: functional; details: read-out: GI
[24] = test system: RAW264.7; test: Cytotoxicity against mouse RAW264.7 cells assessed as cell growth inhibition by MTT assay relative to control; format: functional
[25] = test system: Mycobacterium tuberculosis; test: Antibacterial activity against Mycobacterium tuberculosis H37Rv ATCC 27294 assessed as inhibition of bacterial growth; format: functional
[26] = test system: Mycobacterium tuberculosis; test: Antibacterial activity against drug susceptible Mycobacterium tuberculosis H37Rv assessed as inhibition of bacterial growth; format: functional

CC[C@@H](CO)NCCN[C@@H](CC)CO [ETHAMBUTOL]
MIC [1]: 7.64 µM and 1.6 µg/mL

Cc1nc2cc(C(F)(F)F)ccc2n1-c1ncc(C(F)(F)F)s1
MIC [2]: 0.28 µM

C/C(=N\NC(=S)Nc1cccc(Cl)c1Cl)c1nc2cc([N+](=O)[O-])ccc2[nH]1
MIC [2]: 62.5 µg/mL

CS(=O)(=O)NC(=O)CCc1cn(-c2ccc(Br)cc2)nc1-c1ccc(Cl)cc1
inhibition [3]: inactive | IC50 [4]: 130 nM

CO[C@H]1C[C@@]2(C)C=C[C@H]3[C@H]4O[C@]2(/C(C)=C/[C@@H](C)[C@@H]([C@@H](C)O)OC1=O)[C@@H]3[C@H](O)[C@@H](C)[C@H]4OC(=O)c1ccc[nH]1
MIC [5]: 0.6 µM (≈ 0.318 µg/mL) | MIC [6]: 12.5 µM (≈ 6.62 µg/mL)

Cc1cn([C@H]2C[C@H](O)[C@@H](COP(=O)(O)O)O2)c(=O)[nH]c1=O [THYMIDINE MONOPHOSPHATE]
IC50 [7]: 70 nM

Clc1ccc(Cn2cc(COc3ccc(C4=NCCO4)cc3)nn2)cc1
IC50 [8]: 83 nM | IC50 [2]: 1600 nM

CC(=O)c1c(C)n(-c2ccc(-c3ccccc3)cc2)c2ccc(O)c(CN3CCCCC3)c12
half-life at 0.1 µM [9]: 20.7 min | MIC [1]: 0.063 µg/mL

Cc1cc(C(=O)N2CCN(c3nc(=O)c4cc(Cl)cc([N+](=O)[O-])c4s3)CC2)c2cc(Br)ccc2n1
MIC [2]: 0.06 µg/mL

CC(=O)NC[C@H]1CN(c2ccc(N3CCOCC3)c(F)c2)C(=O)O1 [LINEZOLID]
MIC [2]: 1 µg/mL

O=C(/C=C/c1cc(Cl)ccc1O)c1ccc(Br)cc1
MIC [1]: 6.25 µg/mL

COc1ccc(NC(=O)CCCCCN/C(C)=C2/C(=O)C=C3Oc4c(C(C)=O)c(O)c(C)c(O)c4[C@]3(C)C2=O)cc1OC
MIC [2]: 5.3 µM

N#Cc1cc(OCCOc2ccccc2)cc(-c2ccc(C(=O)O)o2)c1
IC50 [10]: 12100 nM

Cc1cc(C(=O)N2CCN(c3nc(=O)c4cc(C(F)(F)F)cc([N+](=O)[O-])c4s3)CC2)c2cc(Br)ccc2n1
MIC [2]: 0.12 µg/mL

O=C1C(C#Cc2ccccc2)=C(c2ccc(C(F)(F)F)cc2)C(=O)N1Cc1ccccn1
Activity [11]: 0.47 log10CFU | IC50 [12]: > 64 µg/mL | selectivity ratio [13]: 69.6 | MIC [2]: 0.92 µg/mL

Cc1cc(C(=O)N2CCN(c3nc(=O)c4cc(Br)cc([N+](=O)[O-])c4s3)CC2)c2cc(Cl)ccc2n1
MIC [2]: 0.12 µg/mL

COc1ccc(-c2nn(-c3ccc([N+](=O)[O-])cc3[N+](=O)[O-])c(N)c2C#N)cc1Oc1cccc(Br)c1C#N
MIC [14]: 0.98 µg/mL (≈ 1.7 µM) | IC50 [15]: 290 nM

Cc1cc(C(=O)N2CCN(c3nc(=O)c4cc(Cl)cc([N+](=O)[O-])c4s3)CC2)c2cc(Cl)ccc2n1
MIC [2]: 0.06 µg/mL

Cc1nc2sc3ccccc3n2c1C(=O)N1CCN(Cc2cn(-c3ccc(Cl)cc3Cl)nn2)CC1
IC90 [16]: 15200 nM | IC50 [17]: 1.6 µg/mL (≈ 3.04 µM) | IC50 [18]: 2030 nM

O=C(Nc1ccc(C(=O)O)c(O)c1)c1cncc(Cl)n1
MIC [2]: 3.13 µg/mL

CCCCCCc1ccc(-c2cn(CC(=O)Cn3ccnc3[N+](=O)[O-])nn2)cc1
MIC [2]: 65.3 µM

CO[C@H]1/C=C/O[C@@]2(C)Oc3c(C)c(O)c4c(O)c(c(/C=N/N5CCN(C)CC5)c(O)c4c3C2=O)NC(=O)/C(C)=C\C=C\[C@H](C)[C@H](O)[C@@H](C)[C@@H](O)[C@@H](C)[C@H](OC(C)=O)[C@@H]1C [RIFAMPIN]
MIC [2]: 0.97 µg/mL

O=C(/C=C/c1ccccc1[N+](=O)[O-])c1ccc(Br)cc1
MIC [1]: 6.25 µg/mL

Cc1cc(C(=O)N2CCN(c3nc(=O)c4cc(C(F)(F)F)cc([N+](=O)[O-])c4s3)CC2)c2cc(Cl)ccc2n1
MIC [2]: 0.12 µg/mL

Cc1cc(N=Nc2ccc(O)cc2O)ccc1C(C)C
IC50 [19]: 620 nM

CCOC(=O)Cc1csc(N2C(=O)CSC2c2ccc(Br)cc2)n1 (stereo not drawn)
MIC [14]: 0.48 µg/mL (≈ 1.12 µM) | IC50 [15]: 1060 nM

O=C(N/N=C1\C(=O)N(Cc2ccccc2)c2ccccc21)c1cnc2cc(Cl)ccc2c1O
MIC [20]: 0.06 µg/mL (≈ 0.131 µM) | IC50 [21]: 36600 nM

CC(C)/N=c1\cc2n(-c3ccccc3)c3ccccc3nc-2cc1Nc1ccc(N2CCN(C)CC2)c(F)c1
MIC [22]: 0.08 µg/mL (≈ 0.154 µM) | MIC [2]: 0.625 µg/mL

Cc1ccc(C(=O)C2[C@H]3CCCN3[C@]3(C(=O)Nc4ccccc43)C23c2ccccc2-n2c3nc3ccccc3c2=O)cc1 (stereo partly drawn)
MIC [2]: 1.56 µg/mL

O=C(/C=C/c1cccc(Oc2ccccc2)c1)c1ccc(Br)cc1
MIC [1]: 6.25 µg/mL

CCOC(=O)C1=C(C)NC(=O)NC1c1ccccc1OCc1cn(CC(=O)c2ccc(Cl)cc2)nn1 (stereo not drawn)
MIC [1]: 6.13 µM

O=C1C(Cl)=C(Cl)C2(OC(c3c(Cl)cccc3Cl)=NN2c2ccccc2)c2ccccc21 (stereo not drawn)
MIC [2]: 15.6 µg/mL

Cc1cc(C(=O)N2CCN(c3nc(=O)c4cc(F)cc([N+](=O)[O-])c4s3)CC2)c2cc(Br)ccc2n1
MIC [2]: 0.06 µg/mL

CC1/C(=N\NC(N)=[Se])Nc2ccccc21 (stereo not drawn)
MIC [1]: 1.6 µg/mL

CS(=O)(=O)N1CCN(c2ccc(N3C[C@H](CNC(=O)c4ccc([N+](=O)[O-])o4)OC3=O)cc2F)CC1
MIC [2]: 1.1 µg/mL

CC(=O)c1ccc(N2CN=c3s/c(=C/c4ccco4)c(=O)n3C2)cc1
MIC [14]: 2.49 µg/mL (≈ 7.05 µM)

C[C@H]1S[C@]2(CC[C@@H](c3ccccc3)CC2)N(NC(=O)[C@@H](O)c2ccccc2)C1=O
inhibition of growth at 6.25 µg/mL [23]: 98% | MIC [2]: < 6.25 µg/mL

Cc1cc(C(=O)N2CCN(c3nc(=O)c4cc(Br)cc([N+](=O)[O-])c4s3)CC2)c2cc(Br)ccc2n1
MIC [2]: 0.12 µg/mL

CCOC(=O)Cc1csc(N2C(=O)CSC2c2ccc(OC)cc2)n1 (stereo not drawn)
MIC [14]: 0.12 µg/mL (≈ 0.317 µM) | IC50 [15]: 1300 nM

C/C(=N\N=C(\N/N=C(\C)c1ccc(Cl)cc1)NC(=S)Nc1cccc2ccccc12)c1ccc(Cl)cc1
MIC [2]: 0.78 µM

CN1CCN(C(=O)c2cc3ccccc3[nH]2)CC1
growth inhibition (GI) [24]: 32% | MIC [1]: 3.12 µg/mL

O=C(/C=C/c1ccccc1)c1ccc(Br)cc1
MIC [1]: 6.25 µg/mL

O=c1/c(=C\c2ccc(Cl)cc2)sc2n1CN(C1=NS(=O)(=O)c3ccccc31)CN=2
MIC [14]: 2.28 µg/mL (≈ 5.12 µM)

CC(=O)c1c(C)n(-c2ccc(C3CCNCC3)cc2)c2ccc(O)c(CN3CCCCC3)c12
half-life at 0.1 µM [9]: 58 min | MIC [1]: 0.125 µg/mL

O=C1Nc2ccccc2/C1=N\OCc1cn(Cc2ccc(F)cc2)nn1
MIC [25]: 0.78 µg/mL (≈ 2.22 µM)

NNC(=O)c1ccncc1 [ISONIAZID]
IC50 [17]: 1.6 µg/mL (≈ 11.7 µM) | MIC [2]: 15.6 µg/mL | MIC [1]: 1.6 µg/mL

CC(C)(C)OC(=O)N1CCN(c2ccc(N3C[C@H](CNC(=O)c4ccc([N+](=O)[O-])o4)OC3=O)cc2F)CC1
MIC [2]: 2.34 µg/mL

COC(=O)c1cc(-c2ccc(OC)c(NC(=O)c3cc(-c4cccc(Cl)c4)nc4ccccc34)c2)on1
MIC [26]: 0.12 µg/mL (≈ 0.233 µM)

O=C(c1ccc(Cl)cc1)C1[C@H]2CCCN2[C@]2(C(=O)Nc3ccc(Cl)cc32)C12c1ccccc1-n1c2nc2ccccc2c1=O (stereo partly drawn)
MIC [2]: 1.56 µg/mL

Source: ChEMBL document CHEMBL5365393, “Comprehensive coverage on anti-mycobacterial endeavour reported during 2022” (Eur J Med Chem, 2023)
